Measurements published in PMC5751115, “Screening In Vitro Targets Related to Diabetes in Herbal Extracts from Peru: Identification of Active Compounds in Hypericum laricifolium Juss. by Offline High-Performance Liquid Chromatography” (International Journal of Molecular Sciences, 2017).
One block for each compound: values may come before it.

How the values were obtained:
α-glucosidase [1] = assay: α-Glucosidase inhibitory assay; format: biochemical
Procedure: α-Glucosidase inhibitory activity was determined using a previously reported method with slight modifications. The initial concentration of the enzyme solution was 0.015 mg/mL in 0.1 M phosphate buffer (pH 6.9) and the initial concentration of the substrate solution was 1 mM in the same phosphate buffer. The enzyme solution was mixed in a clear 96-well microplate (flat bottom) and the reaction was initiated by the addition of the substrate to the solution. The plates were incubated at 37 °C for 10 min.

[2] = DPPH free radical scavenging assay; conditions: for IC50 / Antioxidants DPPH IC50 (μM): Table 3, isolated compounds, NA is not active; for IC50: read-out: Antioxidants DPPH IC50
Procedure: The DPPH free radical scavenging activity was determined as previously described with slight modifications. […] After 15 min incubation in the darkroom, the absorbance change at 570 nm was measured on a microplate reader (EL800 Universal Microplate reader, BioTek Instruments, Winooski, VT, USA). L-Ascorbic acid was used as positive control.

[3] = ABTS free radical scavenging assay; conditions: for IC50 / Antioxidants ABTS IC50 (μM): Table 3, isolated compounds, NA is not active; for IC50: read-out: Antioxidants ABTS IC50
Procedure: The ABTS free radical scavenging activity was determined using ABTS radical cations (ABTS^+) with slight modifications [34]. Briefly, potassium persulfate (3.5 mM) and ABTS diammonium salt (2.0 mM) were mixed, diluted in distilled water, and subsequently allowed to stand in the dark at room temperature for 24 h before use, to allow free radical generation. To determine the scavenging activity, the absorbance was recorded at 750 nm using an EL-800 Universal microplate reader (BioTek Instrument Inc., Winooski, VT, USA) after incubating the sample solutions (10 µL, 1 mg/mL, 0.5 mg/mL in methanol) with ABTS solution (290 µL) for 10 min in a 96-well plate. Trolox was used as a positive control.

α-glucosidase [4] = assay: α-Glucosidase ultrafiltration-HPLC assay; format: binding; conditions: peak in HL 70% MeOH extract 0.1 mg/mL; α-glucosidase 3.9 μM
Procedure: The α-glucosidase present in the HL was profiled using a newly developed α-glucosidase ultrafiltration assay. Specifically, the HL 30 μL sample (final concentration = 0.1 mg/mL) was incubated with α-glucosidase (3.9 μM) in PBS (300 μL, pH 7.0) at 37 °C for 30 min. The incubated mixture was then filtered by centrifugation at 5167× g for 30 min at room temperature using a Microcon YM-10 centrifugal filter unit (Millipore, Bedford, MA, USA). The filtrate was subsequently analyzed by HPLC on a Dionex system (Dionex, Sunnyvale, CA, USA) consisting of a P850 pump, an ASI-100 automated sample injector, a Synergi Hydro-RP 80A column (150 mm × 4.6 mm, 4 μm; Phenomenex, Torrance, CA, USA) maintained at 30 °C, and a UVD170S detector. The injection volume was 10 μL and the flow rate of the mobile phase was 0.7 mL/min. The mobile phase compositions were as follows: 0.1% trifluoroacetic acid (A-line) and methanol (B-line). The gradient elution system was modified as follows: 0–35 min, starting with 5% B-line, programmed to reach 40% B-line at 15 min using a linear gradient, followed by 100% B-line from 15–35 min. The detector monitored the eluent at a wavelength of 254 nm. The sample incubated without α-glucosidase was used as control.

[5] = Offline DPPH-HPLC analysis; conditions: peak area reduction in HL 70% MeOH extract after DPPH
Procedure: The DPPH radical assay was modified by an offline DPPH-HPLC assay. […] After incubation (15 min) in the dark room, the mixture was filtered through a 0.45-μm membrane and subsequently analyzed by HPLC (Section 3.9). The sample incubated with methanol was used as control. The decreases in peak area were expressed as the % quantitative reduction (% QR), calculated from the equation: % QR = (A − B)/A × 100%, where A and B are the HPLC peak areas of the compound incubated without and with the DPPH methanol solution, respectively.

[6] = Offline ABTS-HPLC analysis; conditions: peak area reduction in HL 70% MeOH extract after ABTS
Procedure: Offline ABTS-HPLC was investigated by modifying a previously reported protocol. Briefly, 10 μL of 70% methanol extract from HL (20 mg/mL) was mixed with 140 μL ABTS solution that was prepared one day in advance. The mixture was then incubated at room temperature for 10 min and subsequently filtered through a 0.45 μm filter. The filtrate was analyzed by HPLC (Section 3.9). The methanol extract of HL (20 mg/mL in MeOH was used as control. The detector monitored the eluent at a wavelength of 300 nm and the % QR was calculated as described in Section 3.11.

[7] = molecular target: rat lens aldose reductase (RLAR) (Rattus norvegicus, UniProt P07943); assay: Rat lens aldose reductase (RLAR) assay; format: biochemical; conditions: for AR IC50 (μM) / IC50: Table 3, isolated compounds, means ± SD (n = 3), NA is not active; for IC50: read-out: AR IC50
Procedure: The rat lenses (RL) were prepared as follows: the RL were removed from the eyes from 10-week-old Sprague-Dawley rats (weight = 250–280 g) and frozen until required. The rats were housed in a standardized laboratory environment with a 12 h light/12 h dark cycle at constant room temperature (22 ± 1 °C) and humidity (6 ± 5%) before experimentation. All animals had free access to water and food.
The AR inhibitory activities were evaluated using RLAR. Prior to analysis, the lenses were homogenized in 0.1 M phosphate buffer saline (pH 6.2) and subsequently centrifuged at 10,000× g for 30 min at 4 °C. The rat lens aldose reductase (RLAR)-containing supernatant was then collected. A substrate comprising 531 μL 0.1 M potassium buffer (pH 7.0), 90 μL NADPH solution (1.6 mM in potassium buffer), 90 μL RLAR homogenate (6.5 U/mg), 90 μL ammonium sulfate solution (4 M in potassium buffer), and 90 μL DL-glyceraldehyde (25 mM in potassium buffer) was placed into a 1.0-mL cuvette and mixed with 9 μL sample (1 mg/mL dissolved in DMSO). RLAR activity was assessed spectrophotometrically by measuring the decrease in NADPH absorption at 340 nm over a 4 min period.

[8] = molecular target: T1, Human recombinant AR (HRAR) (Homo sapiens, UniProt P15121); assay: HRAR ultrafiltration-HPLC assay; format: binding; conditions: peak in HL 70% MeOH extract 0.1 mg/mL; HRAR 3.9 μM
T1 construct: purchased Wako Pure Chemical Industries Co. (Osaka, Japan)
Procedure: The AR Inhibitors (ARIs) present in HL were profiled using a newly developed AR ultrafiltration assay. Specifically, the HL sample (final concentration = 0.1 mg/mL) was incubated with 0.6 M ammonium sulfate and 3.9 μM HRAR (Human recombinant AR) in a total volume of 300 μL at 37 °C for 30 min. The incubated mixture was then filtered by centrifugation at 5167× g for 30 min at room temperature using a Microcon YM-10 centrifugal filter unit. The filtrate was subsequently analyzed by HPLC (Section 3.9). The sample incubated without HRAR was used as control.

[9] = means ± SD (n = 3), listed as Quercetin (7)

Compound: O=c1c(O)c(-c2ccc(O)c(O)c2)oc2cc(O)cc(O)c12 [Compound 7, quercetin]
α-glucosidase percentage inhibition (α-glucosidase [1]; isolated compound, Figure 2, 50 μg/mL): 91%
IC50 [2, 9]: 0.33 µM
IC50 [3, 9]: 0.33 ± 0.6 µM
total binding degree (TBD), α-glucosidase ultrafiltration-HPLC (α-glucosidase [4]): 61.57%
% quantitative reduction (QR), offline DPPH-HPLC [5]: 42.8%
quantitative reduction percentage (QR), offline ABTS-HPLC [6]: > 80%

Compound: C[C@H]1O[C@H](O[C@H]2[C@H](O)[C@@H](O)[C@@H](O[C@H]3[C@H](O)[C@@H](O)C(O)O[C@@H]3CO)O[C@@H]2CO)[C@H](O)[C@@H](O)[C@@H]1N[C@H]1C=C(CO)[C@@H](O)[C@H](O)[C@H]1O (some centres unmarked) [Acarbose, acarbose, reference compound]
α-Glucosidase Inhibition (%) (α-glucosidase [1]; Table 2, 500 μg/mL): 55.82 ± 2.3%

DPPH IC50 ([2]; Table 2, means ± SD (n = 3)): 17.6 ± 0.1 µg/mL
Compound: O=C1O[C@H]([C@@H](O)CO)C(O)=C1O [L-Ascorbic, L-ascorbic acid, reference compound]
DPPH Inhibition (%) ([2]; Table 2, L-ascorbic acid at 71 μg/mL): 99.1 ± 0%

AR IC50 (μM) [7]: inactive
Antioxidants DPPH IC50 (μM) ([2]; means ± SD (n = 3)): inactive
Antioxidants ABTS IC50 (μM) ([3]; means ± SD (n = 3)): inactive
Compound: O=C(O)c1ccc(O)cc1 [Compound 2, p-hydroxybenzoic acid]

Compound: O=C(O)/C=C/c1ccc(O)c(O)c1 [Compound 5, caffeic acid]
IC50 [7]: 28.3 ± 0.9 µM
IC50 ([2]; means ± SD (n = 3)): 47.2 ± 0.1 µM
IC50 ([3]; means ± SD (n = 3)): 7.2 ± 1.1 µM
quantitative reduction percentage (QR), offline ABTS-HPLC [6]: 76%

IC50 [7]: 9.7 ± 0.5 µM
IC50 ([2]; means ± SD (n = 3)): 326 ± 3.3 µM
IC50 ([3]; means ± SD (n = 3)): 191.8 ± 1.1 µM
total binding degree (TBD), HRAR ultrafiltration-HPLC [8]: < 20%
Compound: O=c1c(O)c(-c2ccc(O)cc2)oc2cc(O)cc(O)c12 [Compound 8, kaempferol]
% quantitative reduction (QR), offline DPPH-HPLC [5]: 51%
quantitative reduction percentage (QR), offline ABTS-HPLC [6]: 54%

ABTS IC50 ([3]; Table 2, means ± SD (n = 3)): 4.6 ± 0.1 µg/mL
IC50 ([3]; means ± SD (n = 3)): 18.8 ± 0.5 µM
Compound: Cc1c(C)c2c(c(C)c1O)CCC(C)(C(=O)O)O2 (centres unmarked) [Trolox, 6-hydroxy-2,5,7,8-tetramethylchroman-2-carboxylic acid, reference compound]
ABTS Inhibition (%) ([3]; Table 2, trolox at 17 μg/mL): 100 ± 0.1%

Compound: O=c1c(O)c(-c2ccc(O)c(O)c2)oc2cc(O)cc(O)c12 [Quercetin, quercetin, reference compound]
inhibition at 10 µg/mL ([7]; read-out: AR Inhibition (%)): 83.7 ± 2.6%

IC50 [7]: 0.23 µM
total binding degree (TBD), HRAR ultrafiltration-HPLC [8]: ~ 20%
Compound: O=C(/C=C/c1ccc(O)c(O)c1)O[C@@H]1C[C@](O)(C(=O)O)C[C@@H](O)[C@H]1O [Compound 3, chlorogenic acid]

Compound: O=C(O)c1ccc(O)c(O)c1 [Compound 1, protocatechuic acid]
IC50 [7]: 16.9 ± 1.9 µM
IC50 ([2]; means ± SD (n = 3)): 263.4 ± 0.2 µM
IC50 ([3]; means ± SD (n = 3)): 9.7 ± 0.9 µM

AR IC50 (μM) [7]: inactive
Antioxidants DPPH IC50 (μM) ([2]; means ± SD (n = 3)): inactive
Antioxidants ABTS IC50 (μM) ([3]; means ± SD (n = 3)): inactive
Compound: COc1cc(C(=O)O)ccc1O [Compound 4, vanillic acid]

IC50 [7]: 6 ± 1.1 µM
IC50 ([2]; means ± SD (n = 3)): 58.8 ± 2.1 µM
IC50 ([3]; means ± SD (n = 3)): 11 ± 0.2 µM
total binding degree (TBD), HRAR ultrafiltration-HPLC [8]: 30%
Compound: O=C(O)[C@H]1O[C@@H](Oc2c(-c3ccc(O)cc3)oc3cc(O)cc(O)c3c2=O)[C@H](O)[C@@H](O)[C@@H]1O [Compound 6, kaempferol 3-O-glucuronide]
